Measurements as given in patent US10952963B2, “Ready to use liquid RECK formulation” (QuVa Pharma, Inc., priority 2018, dated 2021).

Details: for pH that provides for acceptable stability: pH 4.8
Experimental: Multiple antioxidants, chelating agents, and buffers were evaluated to stabilize both epinephrine and ketorolac, which include: sodium bisulfite, sodium metabisulfite, EDTA Sodium Dihydrate (i.e., EDTA Sodium), citric acid, sodium phosphate dibasic, and PEG 400. Solution pH values were evaluated from a pH of 3.9-6.0.

pH range of maximum stability | pH at which substantial degradation occurs | pH that provides for acceptable stability | pH at which rate of degradation increases | pH at which substance tended to degrade | sodium metabisulfite concentration in the presence of which the substance degrades substantially [mg/mL] | Compound
3-4 |  |  |  |  |  | Clc1cccc(Cl)c1N=C1NCCN1 [clonidine]
3-4 | greater than 4 | about 4.8 |  |  |  | CNC[C@H](O)c1ccc(O)c(O)c1 [epinephrine]
6-7 |  | about 4.8 | less than 5 | less than 4.5 | ≥ 1 | O=C(c1ccccc1)c1ccc2n1CCC2C(=O)O (stereo not shown) [ketorolac]
3-4 |  |  |  |  |  | CCCN1CCCC[C@H]1C(=O)Nc1c(C)cccc1C [ropivacaine]
